Laboratory results reported in patent US20230099031A1, “BIFUNCTIONAL AGENTS FOR PROTEIN RECRUITMENT AND/OR DEGRADATION” (Orionis Biosciences, Inc., priority 2019, published 2023).

How the values were obtained:
[1] = target: T1, DHFR (UniProt P0ABQ4+Q96SW2); test: Recruitment Assay (MAPPIT-like): DHFR recruitment to CRBN, pCLG-DHFR+pMG1-CRBN; assay type: cell-based, E. coli; details: for EC50: HEK293T cells, luciferase 24 hours after compound treatment, read-out: Recruitment EC50 (M), target protein DHFR
T1 construct: Full size proteins are fused for each of the target proteins tested; expressed in transfected cells; host or cells: HEK293T
Protocol: (§1) In this experimental set-up, cells are transfected with a construct encoding a CRBN-fusion protein and another one encoding a substrate-fusion protein. Test compound activity is assessed with increasing concentrations of test compounds (dose-response studies) to monitor the ability to promote CRBN-ligand-induced protein interaction.
(§2) Full size proteins are fused for each of the target proteins tested, except in the case of IKZF1 where isoform 7 is used, and BRD4, where isoform 3 is applied. For the study, the following construct combinations are used: IKZF1 recruitment: pSEL-CRBN+pMG1-IKZF1(isoform 7); ASS1 recruitment: pSEL-CRBN+pMG1-ASS1; SALL4 recruitment: pSEL-SALL4+pMG1-CRBN; DHFR recruitment: pCLG-DHFR+pMG1-CRBN; ESR1 recruitment: pSEL-CRBN+pMG1-ESR1; BRD4 recruitment: pSEL-CRBN+pMG1-BRD4(isoform 3). Cells are treated with erythropoietin (Epo; where pSEL-type receptor fusions constructs are used) or leptin (in the case pCLG-type receptor fusion constructs are applied) without or with the indicated dose of test compound at 24 hours after transfection. Luciferase activity is measured 24 hours after test compound treatment using the Luciferase Assay System kit (PROMEGA, Madison, Wis.) with an Ensight plate reader (PERKIN ELMER LIFE SCIENCES, Waltham, Mass.). Data points depict fold induction of the average luciferase activity of triplicate samples from Epo or leptin+test compound treated cells versus Epo or leptin only treated cells. Error bars represent standard deviations. Curves are fit using 4-parameter nonlinear regression in […] PRISM software.
Error bars represent standard deviations and curves were fit using 4-parameter nonlinear regression in […] PRISM software.

[2] = target: T2, SALL4 (Homo sapiens, UniProt Q96SW2+Q9UJQ4); test: Recruitment Assay (MAPPIT-like): SALL4 recruitment, pSEL-SALL4+pMG1-CRBN; assay type: cell-based; details: recruitment of SALL4, protocol of Example 2; read-out: EC50_SALL4
T2 construct: Full size proteins are fused for each of the target proteins tested; expressed in transfected cells; host or cells: HEK293T
Protocol: as §1, §2

[3] = target: T3, CRBN (Homo sapiens, UniProt Q96SW2); test: Competition Assay: MAPPIT-like, competition with trimethoprim-lenalidomide hybrid ligand for binding to CRBN in HEK293T cells; assay type: cell-based; details: protocol and reagents of Example 1; read-out: IC50 Competition
T3 construct: expressed in transfected cells; host or cells: HEK293T

[4] = target: T4, IKZF1 (Homo sapiens, UniProt Q13422+Q96SW2); test: Recruitment Assay (MAPPIT-like): IKZF1 recruitment, pSEL-CRBN+pMG1-IKZF1(isoform 7); assay type: cell-based; details: recruitment of IKZF1, protocol of Example 2; read-out: EC50_IKZF1
T4 construct: expressed in transfected cells; host or cells: HEK293T
Protocol: as §1, §2

[5] = target: T5, ASS1 (Homo sapiens, UniProt P00966+Q96SW2); test: Recruitment Assay (MAPPIT-like): ASS1 recruitment, pSEL-CRBN+pMG1-ASS1; assay type: cell-based; details: recruitment of ASS1, protocol of Example 2; for EC50: read-out: EC50_ASS1
T5 construct: Full size proteins are fused for each of the target proteins tested; expressed in transfected cells; host or cells: HEK293T
Protocol: as §1, §2

Row | Structure (SMILES) | EC50 [1] [M] | EC50 [2] [nM] | IC50 [3] [nM] | EC50 [4] [nM] | EC50_ASS1 (M) [5] | EC50 [5] [nM] | hybrid ligand-induced binding between CRBN and DHFR (MAPPIT signal, FIG. 3) ([1]; CRBN as gp130 fusion, DHFR linked to MAPPIT chimeric membrane receptor)
1 | COc1cc(Cc2cnc(N)nc2N)cc(OC)c1OCCCCC(=O)NCCOCCOCCOCCNC(=O)COc1ccc(Br)c2c1C(=O)N(C1CCC(=O)NC1=O)C2 (stereo not drawn) [Compound 5.13] | 4.69e-07 |  |  |  |  |  | 
2 | CS(=O)(=O)Nc1cccc2c1CN(C1CCC(=O)NC1=O)C2=O (stereo not drawn) [Compound C22548, N-[2-(2,6-dioxo-3-piperidyl)-1-oxo-isoindolin-4-yl]methanesulfonamide] |  | 631 | 1110 | 494 | >> |  | 
3 | Cc1cccc2c1CN(C1CCC(=O)NC1=O)C2=O (stereo not drawn) [Compound C28558, 3-(4-methyl-1-oxo-isoindolin-2-yl)piperidine-2,6-dione] |  | < 13.7 | 50.4 | 77.4 |  | 368 | 
4 | O=C1CCC(N2Cc3cc(NCC(=O)Nc4ccccc4)ccc3C2=O)C(=O)N1 (stereo not drawn) [Compound C35797, 2-[[2-(2,6-dioxo-3-piperidyl)-1-oxo-isoindolin-5-yl]amino]-N-phenyl-acetamide] |  | 1080 | 851 | 1330 | >> |  | 
5 | COc1cc(Cc2cnc(N)nc2N)cc(OC)c1OCCCCC(=O)NCCOCCOCCOCCNC(=O)c1ccc2c(c1)CN(C(=O)CNc1ccc3c(c1)C(=O)N(C1CCC(=O)NC1=O)C3)C2 (stereo not drawn) [Compound 5.46] | 1.44e-08 |  |  |  |  |  | 
6 | O=C1CCC(N2Cc3c(cccc3-c3ccccc3)C2=O)C(=O)N1 (stereo not drawn) [Compound C48014, 3-(1-oxo-4-phenyl-isoindolin-2-yl)piperidine-2,6-dione] |  | 62.1 | 24.3 | 1240 |  | 921 | 
7 | COc1cc(Cc2cnc(N)nc2N)cc(OC)c1OCCCCC(=O)NCCOCCOCCOCCNC(=O)c1ccc2c(Nc3ccc4c(c3)C(=O)N(C3CCC(=O)NC3=O)C4)ncnc2c1 (stereo not drawn) [Compound 5.20] | 1.01e-08 |  |  |  |  |  | 
8 | COc1cc(Cc2cnc(N)nc2N)cc(OC)c1OCCCCC(=O)NCCOCCOCCOCCNC(=O)c1ccc2ncnc(Nc3ccc4c(c3)C(=O)N(C3CCC(=O)NC3=O)C4)c2c1 (stereo not drawn) [Compound 5.19] | 4.2e-09 |  |  |  |  |  | 
9 | CC1c2ccccc2C(=O)N1C1CCC(=O)NC1=O (stereo not drawn) [Compound C51383, 3-(1-methyl-3-oxo-isoindolin-2-yl)piperidine-2,6-dione] |  | 59.3 | 190 | 1520 |  | 1700 | 
10 | COc1cc(Cc2cnc(N)nc2N)cc(OC)c1OCCCCC(=O)NCCOCCOCCOCCNC(=O)Cn1cc(CN(C)C(=O)CNc2ccc3c(c2)C(=O)N(C2CCC(=O)NC2=O)C3)cn1 (stereo not drawn) [Compound 5.23] | 1.19e-07 |  |  |  |  |  | 
11 | COc1cc(Cc2cnc(N)nc2N)cc(OC)c1OCCCCC(=O)NCCOCCOCCOCCNC(=O)CN1CCN(C(=O)CNc2ccc3c(c2)C(=O)N(C2CCC(=O)NC2=O)C3)C(C)C1 (stereo not drawn) [Compound 5.26] | 4.5e-07 |  |  |  |  |  | 
12 | CN(C)c1ccc2c(c1)CN(C1CCC(=O)NC1=O)C2=O (stereo not drawn) [Compound C98103, 3-[5-(dimethylamino)-1-oxo-isoindolin-2-yl]piperidine-2,6-dione] |  | < 13.7 | 145 | 1290 | >> |  | 
13 | COc1cc(Cc2cnc(N)nc2N)cc(OC)c1OCCCCC(=O)NCCOCCOCCOCCNC(=O)c1cccc(CNC(=O)CNc2ccc3c(c2)C(=O)N(C2CCC(=O)NC2=O)C3)c1 (stereo not drawn) [Compound 5.12] | 3.55e-08 |  |  |  |  |  | 
14 | Nc1cccc2c1CN(C1CC(=O)NC1=O)C2=O (stereo not drawn) [Compound C47930, 3-(4-amino-1-oxo-isoindolin-2-yl)pyrrolidine-2,5-dione] |  |  |  | 784 |  |  | 
15 | COc1cc(Cc2cnc(N)cc2N)cc(OC)c1OCCCCC(=O)NCCOCCOCCOCCNC(=O)COc1ccc2nc(C(=O)Cc3ccc4c(c3)C(=O)N(C3CCC(=O)NC3=O)C4)ccc2c1 (stereo not drawn) [Compound 5.10] | 7.95e-08 |  |  |  |  |  | 
16 | Nc1cccc2nnn(C3CCC(=O)NC3=O)c(=O)c12 (stereo not drawn) [Compound C59904, 3-(5-amino-4-oxo-1,2,3-benzotriazin-3-yl)piperidine-2,6-dione] |  | 33 | 704 | 122 |  | 698 | 
17 | O=C(O)CN1CCN(Cc2ccc(COc3cccc4c3CN(C3CCC(=O)NC3=O)C4=O)cc2)CC1 (stereo not drawn) [ZE26-0001, formic acid] |  | 801 | 5760 | 4680 | >> |  | 
18 | O=C1CCC(N2Cc3c(ccc4c3OCO4)C2=O)C(=O)N1 (stereo not drawn) [Compound C67858, 3-(6-oxo-8H-[1,3]dioxolo[4,5-e]isoindol-7-yl)piperidine-2,6-dione] |  | 29.3 | 106 | 569 |  | 884 | 
19 | O=C(CNc1ccc2c(c1)CN(C1CCC(=O)NC1=O)C2=O)NCc1ccccc1 (stereo not drawn) [Compound C35856, N-benzyl-2-[[2-(2,6-dioxo-3-piperidyl)-1-oxo-isoindolin-5-yl]amino]acetamide] |  | 188 | 484 | 1150 | >> |  | 
20 | O=C1CCC(N2Cc3cc(Nc4ncc5c(n4)COC5)ccc3C2=O)C(=O)N1 (stereo not drawn) [Compound C80380, 3-[5-(5,7-dihydrofuro[3,4-d]pyrimidin-2-ylamino)-1-oxo-isoindolin-2-yl]piperidine-2,6-dione] |  | 9.89 | 760 | 1780 |  |  | 
21 | Cc1cccc2nnn(C3CCC(=O)NC3=O)c(=O)c12 (stereo not drawn) [Compound C13247, 3-(5-methyl-4-oxo-1,2,3-benzotriazin-3-yl)piperidine-2,6-dione] |  | 402 | 2290 | 2880 |  | 8550 | 
22 | N#Cc1ccc2c(c1)C(=O)N(C1CCC(=O)NC1=O)C2 (stereo not drawn) [Compound C48007, 2-(2,6-dioxo-3-piperidyl)-3-oxo-isoindoline-5-carbonitrile] |  | 430 | 1340 | 1620 | >> |  | 
23 | COc1cc(Cc2cnc(N)nc2N)cc(OC)c1OCCCCC(=O)NCCOCCOCCOCCn1cc(CCC(=O)Nc2cccc3c2CN(C2CCC(=O)NC2=O)C3=O)nn1 (stereo not drawn) [TMP-LEN, Trimethoprim-lenalidomide] | 1.86e-08 |  |  |  |  |  | dose-dependent signal can be observed
24 | O=C1CCCC(N2Cc3c(cccc3[N+](=O)[O-])C2=O)C(=O)N1 (stereo not drawn) [Compound C29737, 3-(4-nitro-1-oxo-isoindolin-2-yl)azepane-2,7-dione] |  |  |  | 1410 |  |  | 
25 | N#CC1c2ccccc2C(=O)N1C1CCC(=O)NC1=O (stereo not drawn) [Compound C39453, 2-(2,6-dioxo-3-piperidyl)-3-oxo-isoindoline-1-carbonitrile] |  | 875 | 7520 | 17100 |  |  | 
26 | Cc1ccc2c(c1)CN(C1CCC(=O)NC1=O)C2=O (stereo not drawn) [Compound C28577, 3-(5-methyl-1-oxo-isoindolin-2-yl)piperidine-2,6-dione] |  | < 13.7 | 113 | 1610 |  | 653 | 
27 | O=C1CCC(N2Cc3c(NC(=O)Nc4cccc5c4CN(C4CCC(=O)NC4=O)C5=O)cccc3C2=O)C(=O)N1 (stereo not drawn) [Compound C30231, 1,3-bis[2-(2,6-dioxo-3-piperidyl)-1-oxo-isoindolin-4-yl]urea] |  | 1780 | 247000 | 2730 | >> |  | 
28 | O=C1CCC(N2Cc3c(Cl)cccc3C2=O)C(=O)N1 (stereo not drawn) [Compound C24031, 3-(4-chloro-1-oxo-isoindolin-2-yl)piperidine-2,6-dione] |  | < 13.7 | 11.5 | 58.7 |  | 259 | 
